Data set [1] concerns Anabaena PCC7120. Description: Growth of cyanobacterium determined by chlorophyll concentration. The data set is classed as cell-based. How it is done: Cyanobacteria were grown in BG11 medium under 30 μmol photons m^−2 sec^−1 at 30° C. in the presence of the indicated concentration of Ornidazole.
The cyanobacterium Anabaena PCC7120 was grown in BG-11 medium as was previously described (Marcus Y, et al., 2005. J Bacteriol 187, 4222-4228). The green eukaryotic alga Dunaliella salina was grown on a medium described by Ben-Amotz and Avron (Ben-Amotz A and Avron M 1983. Plant Physiol 72, 593-597), under 20 μmol photons m^−2 sec^−1 at 30° C. The aquatic plant Lemna was collected from an open pond at the Botanical garden of Tel Aviv University. Seedlings of Avena sterilis were grown in pots in a greenhouse. The marine diatom Phaeodactylum tricornutum was grown as described in Haimovich-Dayan et al. (Haimovich-Dayan M. et al. 2012. New Phytol 195:177-185).
The effect of Ornidazole on the growth of the cyanobacterium Anabaena PCC7120 was examined by determining the chlorophyll concentration. The algae were grown in BG-11 medium as described herein above. […] One mM Ornidazole in the medium caused a decrease in chlorophyll concentration to 1% of its original concentration after three days of such incubation (FIG. 1).

The test system of data set [2] is Lemna. Briefly: PAM fluorescence parameters of aquatic plant. The data set is classed as in vivo. The settings on record: 1 mM Ornidazole in growth medium; actinic light 210 μmol photons×m^−2×sec^−1. As for the experimental part: The fluorescence under dim (3 μmol photons×m^−2×sec^−1) and saturating (2000 μmol photons×m^−2×sec^−1, 0.8 sec) flash light (Fo and Fmax, respectively) of pre-darkened plants was determined in the presence or absence of 1 mM Ornidazole in the growth medium, using a PAM fluorimeter. Quantum yield and non-photochemical quenching (qN) were determined with saturating flashes under actinic light (210 μmol photons×m^−2×sec^−1).
The rate of net O2 exchange was determined using a Clark-type O2 electrode (Rank Brothers Ltd, UK). Fluorescent measurements (quantum yield, photochemical and non photochemical quenching) were determined using a modulated fluorometer (PAM, Walz, Germany) as described by Schreiber et al. (Schreiber U et al., 1986. fluorometer. Photosynth Res 10, 51-62) and Snir et al. (Snir A, et al., 2006. Photosynth Res 90, 233-242).
The effect of Ornidazole on photosynthesis was further examined in the aquatic plant Lemna. Lemna plants were collected from a pond at the Botanical garden of Tel Aviv University and kept in the pond water as a growth medium. The fluorescence under dim (3 μmol photons m^−2 sec^−1) and saturating (2000 μmol photons m^−2 sec^−1, 0.8 sec) flash light (Fo and Fmax, respectively) of pre-darkened plants was determined in the presence or absence of 1 mM Ornidazole in the growth medium, using a PAM fluorimeter (H. Walz, Germany). […]

Data set [3] concerns Aldolase. Briefly: Calvin cycle enzyme activity. Format: biochemical, Anabaena. The following applies: 1 mM Ornidazole. How it is done: (§1) Rubisco was assayed as described by Marcus et al. (2005, ibid) and Snir et al. (2006, ibid). Phospho-ribulose kinase was assayed by conversion of phospho-ribulose to RuBP, which was determined by Rubisco dependent carboxylation with radiolabeled ^14CO2. Plant or cyanobacterial extract was incubated with medium containing 50 mM Hepes pH 8, 10 mM MgCl2, 20 mM NaH^14CO3, 1 mM DTT, 0.5 mM ribose-5-phosphate, ribose-5-phosphate isomerase and activated Rubisco. Phosphoglycerate kinase, GAPDH, FBPase and SBPase were determined as described by Leegood (Leegood R C., 1990. In: Methods in plant biochemistry, Vol 3, pp 15-37, Academic Press).
(§2) However, analysis of Ornidazole effect on various enzymes of the Calvin cycle in Anabaena including ribulose-bisphosphate carboxylase/oxygenase (Rubisco), phosphoglycerate kinase, glyceraldehyde-3-phosphate dehydrogenase (GAPDH), triose-phosphate isomerase, aldolase, fructose and sedoheptulose bisphosphatase and phosphoribulose kinase, has shown inhibition of GAPDH and triose-phosphate isomerase (Table 2).

Data set [4] concerns Fructose bisphosphatase. Briefly: Calvin cycle enzyme activity. The data set is classed as biochemical, Anabaena. The following applies: 1 mM Ornidazole. As for the experimental part:
as §1, §2

In data set [5] the test system is GAPDH. Briefly: Calvin cycle enzyme activity. The following applies: 1 mM Ornidazole. The data set is classed as biochemical, Anabaena. As for the experimental part: as §1, §2
The target in data set [6] is T1, Phosphglycerate kinase (Nostoc sp., UniProt Q8YPR1).
T1 construct: endogenous in cells; host or cells: Anabaena PCC7120 extract
T1 sequence (Q8YPR1 1-400): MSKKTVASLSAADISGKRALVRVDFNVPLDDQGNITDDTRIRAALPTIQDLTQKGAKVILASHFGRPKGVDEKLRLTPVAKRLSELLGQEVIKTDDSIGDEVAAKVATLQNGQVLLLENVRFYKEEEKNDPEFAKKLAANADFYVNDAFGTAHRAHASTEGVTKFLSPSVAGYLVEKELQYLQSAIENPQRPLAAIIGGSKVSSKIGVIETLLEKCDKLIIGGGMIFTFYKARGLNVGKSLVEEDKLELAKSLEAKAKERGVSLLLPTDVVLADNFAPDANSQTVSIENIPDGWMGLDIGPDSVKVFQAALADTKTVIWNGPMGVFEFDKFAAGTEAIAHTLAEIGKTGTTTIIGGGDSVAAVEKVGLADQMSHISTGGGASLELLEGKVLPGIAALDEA
Briefly: Calvin cycle enzyme activity. Format: biochemical, Anabaena. The settings on record: 1 mM Ornidazole. As for the experimental part: as §1, §2

The test system of data set [7] is Phosphoribulose kinase. Briefly: Calvin cycle enzyme activity. The settings on record: 1 mM Ornidazole. Format: biochemical, Anabaena. As for the experimental part: as §1, §2
Data set [8] has as its target T2, Rubisco (Nostoc sp., UniProt P00879).
T2 construct: endogenous in cells; host or cells: Anabaena PCC7120 extract
Briefly: Calvin cycle enzyme activity. Format: biochemical, Anabaena. The following applies: 1 mM Ornidazole. As for the experimental part: as §1, §2

In data set [9] the test system is Sedoheptulose bisphosphatase. Briefly: Calvin cycle enzyme activity. The data set is classed as biochemical, Anabaena. The settings on record: 1 mM Ornidazole. How it is done: as §1, §2
Data set [10] in a line: Stability in BG-11 medium lacking cells (LC-MS). The following applies: 0.1 mM, dark or light, four days. Format: physicochemical. As for the experimental part:
Ornidazole (molecular mass 220 and 222 due to two isotopes of chlorine) or degradation products were sought by LC-MS. The chromatograms of samples from the first and fourth days are shown in FIG. 7B and FIG. 7C, respectively. The retention time and molecular mass of the isolated molecules are designated.
The concentrations of Ornidazole and its degradation product in the medium were determined during the growth of the cyanobacterium Anabaena PCC7120 and in media lacking cyanobacteria in the dark or under illumination. Ornidazole at 0.1 mM concentration was added to three growth tubes containing BG-11 medium: one growth tube was kept in the dark, the second under light conditions of 60 μmol photons m^−2 sec^−1 and the third tube, to which Anabaena cells were added, was also kept under similar light conditions. Samples from each tube were taken every day, separated on a C18 reverse phase HPLC column, and Ornidazole (molecular mass 220 and 222 due to two isotopes of chlorine) or degradation products were sought by LC-MS. A degradation product of molecular mass 184, identified as C7H9N3O3, was found in all three tubes.

The record followed here is US9237750B2, “Ornidazole and related compounds for use as herbicides” (RAMOT AT TEL-AVIV UNIVERSITY LTD., priority 2012, dated 2016).

In the case of `Cc1ncc([N+](=O)[O-])n1CC(O)CCl` (stereo not shown) [Ornidazole, 1-chloro-3-(2-methyl-5-nitro-1H-imidazol-1-yl)propan-2-ol], in data set [1] (250 μM Ornidazole in BG-11 medium), the effect on growth result is “stopped the growth and stimulated chlorosis”. The “chlorophyll concentration relative to original concentration” value in data set [1] (1 mM Ornidazole in the medium, after three days) stood at 1%. Besides, in [2], the non-photochemical quenching entry is “increased”. Besides, in data set [2], the photosynthetic quantum yield entry is “decreased significantly”. Further, the Activity was 120 μmol × mg^−1chl × h^−1 in data set [3]; 71 μmol × mg^−1chl × h^−1 in [4]; 1.77 μmol × mg^−1chl × h^−1 in data set [5]; 57 μmol × mg^−1chl × h^−1 in [6]; 66.7 μmol × mg^−1chl × h^−1 in data set [7]; 74.6 μmol × mg^−1chl × h^−1 in data set [8]. In addition, the Activity in data set [9] is on record as 62 μmol × mg^−1chl × h^−1. In addition, in [5], the “inhibition of enzyme activity” value was 98%-100. The “Ornidazole concentration in medium” value in data set [10] is “remained stable”.
